Test results reported in ChEMBL document CHEMBL1131728 (Bioorg Med Chem Lett, 1999).

Biological target: T1, Aminopeptidase N (Sus scrofa, UniProt P15145)
T1 sequence (P15145 whole entry): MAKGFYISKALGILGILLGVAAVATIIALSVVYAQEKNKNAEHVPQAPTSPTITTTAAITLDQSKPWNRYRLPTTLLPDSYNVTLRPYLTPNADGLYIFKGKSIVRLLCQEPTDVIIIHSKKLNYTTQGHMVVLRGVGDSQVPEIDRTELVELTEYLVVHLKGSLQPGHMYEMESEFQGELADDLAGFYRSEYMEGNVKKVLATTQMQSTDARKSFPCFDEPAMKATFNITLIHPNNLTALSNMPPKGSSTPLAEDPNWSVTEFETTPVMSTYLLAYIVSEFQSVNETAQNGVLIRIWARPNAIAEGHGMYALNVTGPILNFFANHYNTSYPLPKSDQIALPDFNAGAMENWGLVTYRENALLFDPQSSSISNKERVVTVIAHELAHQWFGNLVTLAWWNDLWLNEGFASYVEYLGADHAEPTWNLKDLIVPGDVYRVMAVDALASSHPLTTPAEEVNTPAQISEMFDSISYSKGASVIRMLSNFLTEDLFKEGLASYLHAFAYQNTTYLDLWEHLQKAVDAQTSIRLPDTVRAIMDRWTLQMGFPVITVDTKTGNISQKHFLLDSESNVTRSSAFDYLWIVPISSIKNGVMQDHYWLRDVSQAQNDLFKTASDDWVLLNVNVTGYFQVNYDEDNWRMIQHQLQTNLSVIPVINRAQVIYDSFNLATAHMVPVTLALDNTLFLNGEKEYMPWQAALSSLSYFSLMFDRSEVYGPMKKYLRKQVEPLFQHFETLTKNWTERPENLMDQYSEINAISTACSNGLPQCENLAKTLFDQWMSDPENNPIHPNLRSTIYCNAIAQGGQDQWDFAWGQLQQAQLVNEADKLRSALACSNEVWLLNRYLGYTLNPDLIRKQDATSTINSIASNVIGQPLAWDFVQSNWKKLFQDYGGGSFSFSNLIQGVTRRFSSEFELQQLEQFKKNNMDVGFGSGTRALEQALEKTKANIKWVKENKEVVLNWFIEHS
Experiment: Inhibition of pig kidney Aminopeptidase N

Ki	Compound
25 nM	N[C@H](CS)c1ccccc1
190 nM	NC(Cc1ccccc1)P(=O)(O)CC(Cc1ccccc1)C(=O)O (stereo unspecified)
27 nM	N[C@H](CS)CCc1ccccc1
370 nM	CC(C)CC(N)P(=O)(O)CC(Cc1ccccc1)C(=O)O (stereo unspecified)
28 nM	C[C@H](N)CS
22 nM	CC(C)C[C@H](N)CS

Compound	Ki
CC(N)[PH](=O)O (stereo unspecified)	8400 nM
NC(Cc1ccccc1)[PH](=O)O (stereo unspecified)	960 nM
CSCCC(N)[PH](=O)O (stereo unspecified)	400 nM
CC(C)CC(N)[PH](=O)O (stereo unspecified)	1200 nM
NC(c1ccccc1)[PH](=O)O (stereo unspecified)	4800 nM
